Results from patent US20220062299A1, “USE OF GLUCOCORTICOID STEROIDS IN PREVENTING AND TREATING CONDITIONS OF MUSCLE WASTING, AGING AND METABOLIC DISORDER” (NORTHWESTERN UNIVERSITY, priority 2018, published 2022).

System: Dysf-null mice
Assay: Dosing of metabolic and endocrine biomarkers in blood, serum and tissues, Dysf-null mice, 32 weeks weekly prednisone
Assay type: in vivo
Method: Animal handling and steroid regimens. Mice were housed in a pathogen-free dedicated vivarium in accordance with Institutional Animal Care and Use Committee (IACUC) guidelines. Euthanasia was performed through carbon dioxide inhalation followed by cervical dislocation and heart removal. All methods using living animals in this study were performed in ethical accordance with the American Veterinary Medical Association (AVMA) and under protocols fully approved by both the Institutional Animal Care and Use Committee (IACUC) at Northwestern University Feinberg School of Medicine (protocol number ISO00000761). Consistent with the ethical approvals, all efforts were made to minimize suffering. Mice were fed ad libitum with Mouse Breeder Sterilizable Diet (#7904; Harlan Teklad, Indianapolis, Ind.) and maintained on a 12-hour light/dark cycle. mdx mice from the DBA/2J background were obtained from the Jackson Laboratory (Bar Harbor, Me.; stock #013141) and interbred. Male mice were used for reported experiments. Age at start was approximately 6 months for short-term experiments, approximately 6 weeks for long-term experiments. Dysferlin-null (Dysf-null) mice from the 129T2/SvEmsJ background were previously characterized (Demonbreun et al., 2011; Demonbreun et al., 2014). Age at start was approximately 9 months for long-term experiments. For experiments with Dysf-null and wildtype mice, both females and males (approximately 1:1 ratio) were randomized in treatment groups. […] Dosing was based on weekly weight measurements (1 mg/kg body weight, (Sali et al., 2012)) in 100 μl total PBS volume per dose. […] On injection days, stock solutions stored at −20° C. were diluted into sterile Eppendorf tubes containing sterile phosphate buffered saline (PBS) (#14190; Thermo Fisher, Waltham, Mass.). Puromycin (cat #A1113803, Thermo Scientific, Waltham, Mass.) was administered i.p. as 0.040 μmol/body g, and tissues were snap-frozen 30 minutes after injection. Sterile BD Micro-Fine IV Insulin Syringes (#14-829-1A; Fisher Scientific, Waltham, Mass.) were used to inject the intraperitoneal cavity of non-sedated animals. All animal analyses both during treatment and at endpoint were conducted blinded to treatment groups.
Dosing of metabolic and endocrine biomarkers. Glycogen was quantitated using the Glycogen Assay Kit (#ab65620; Abcam, Cambridge, Mass.) from approximately 25 mg frozen-pulverized whole tissue, following manufacturer's instructions and internal standards for calculating μg/mg values. For measurement of whole-tissue ATP/NAD^+ levels, approximately 25 mg frozen-pulverized tissue was extracted in 10% perchloric acid and neutralized in 0.75 M K2CO3, as previously described (Ramsey et al., 2009). NAD+ and ATP were measured by high-pressure liquid chromatography (HPLC) with Shimadzu LC-20A pump (Shimadzu Scientific Instr Inc, Addison, Ill.) and UV-VIS detector, using a Supelco LC-18-T column (15 cm×[…]; #58970-U; Millipore-Sigma, St Louis, Mo.). […] Corticosterone was measured in mouse serum and cortisol was measured in human serum using dedicated ELISA kits (#ADI-900-097, Enzo Life Science, Farmingdale, N.Y.; #K7430-100, BioVision, Milpitas, Calif.) according to manufacturer's instructions and internal standards to calculate ng/ml values. Insulin levels were quantitated in mouse and human serum with species-specific ELISA kits (#10-1247-01 (mouse-specific); #10-1113-01 (human-specific); Mercodia, Uppsala, Sweden), following manufacturer's instructions and internal standards to calculate ng/ml values. Free fatty acids were quantitated using Enzychrom Free Fatty Acid Assay kit (#EFFA-100; BioAssay Systems, Hayward, Calif.), following kit's instructions and standards to calculate μM (serum) and nmol/mg (tissue) values.

[1] = weekly prednisone, mean ± s.e.m

C[C@]12C=CC(=O)C=C1CC[C@@H]1[C@@H]2C(=O)C[C@@]2(C)[C@H]1CC[C@]2(O)C(=O)CO [prednisone, Prednisone]
BCAA utilization in muscle (weekly prednisone): improved
endpoint levels of ATP, NAD+, and glycogen in muscle and heart (weekly prednisone): increased
fasting glycemia (weekly prednisone 1 mg/kg i.p., mean ± s.e.m): 109 ± 3.17 mg/dL
resting lactate [1]: 3.36 ± 0.21 mM
serum BCAA [1]: 419 ± 9.95 µM
serum corticosterone [1]: 143 ± 5.2 ng/mL
serum creatine kinase [1]: 1.31 ± 0.04 U/ml
serum free fatty acids [1]: 475 ± 9.18 µM
serum β-hydroxybutyrate [1]: 323 ± 9.61 µM
tissue BCAA, diaphragm [1]: 45.4 ± 1.06 nmol/mg
tissue BCAA, heart [1]: 0.91 ± 0.03 nmol/mg
tissue BCAA, omental fat [1]: 24.5 ± 0.8 nmol/mg
tissue BCAA, quadriceps [1]: 90.9 ± 2.58 nmol/mg
tissue free fatty acids, diaphragm [1]: 0.753 ± 0.07 nmol/mg
tissue free fatty acids, heart [1]: 0.438 ± 0.05 nmol/mg
tissue free fatty acids, omental fat [1]: 3.49 ± 0.38 nmol/mg
tissue free fatty acids, quadriceps [1]: 1.05 ± 0.06 nmol/mg
tissue β-hydroxybutyrate, diaphragm [1]: 26.5 ± 2.11 nmol/mg
tissue β-hydroxybutyrate, heart [1]: 11.9 ± 0.51 nmol/mg
tissue β-hydroxybutyrate, omental fat [1]: 30.2 ± 0.85 nmol/mg
tissue β-hydroxybutyrate, quadriceps [1]: 43.8 ± 2.23 nmol/mg
